The target of assay [1] is Cyclin-dependent kinase 5/CDK5 activator 1 (Homo sapiens, UniProt Q00535). Description: blockade of human CDK5 activity – biochemical, cherry-picked samples, set 2, dose response (AID 504545).
Assay [2] addresses T1, Endoribonuclease toxin MazF (Escherichia coli K-12, UniProt P0AE70).
T1 sequence (P0AE70 whole entry): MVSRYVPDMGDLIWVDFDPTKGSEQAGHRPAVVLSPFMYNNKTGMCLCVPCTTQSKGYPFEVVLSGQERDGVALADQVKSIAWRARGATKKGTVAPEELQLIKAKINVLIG
Description: activation of MazEF endoribonuclease cleavage – biochemical, fluorescence, single-stranded RNA substrate, uHTS hits, dose response (AID 588481). Format: functional.

The target of assay [3] is T1, Endoribonuclease toxin MazF. Put plainly: substrate-only fluorescence increase artefacts – biochemical, single-stranded RNase substrate, counter-screen for MazEF activator project, dose response (AID 588502). In kind it is functional. On the technique in general: The purpose of a counterscreen is to sort out artefacts and off-target activity.
Assay [4] concerns the target T2, Rac GTPase-activating protein 1 (Homo sapiens, UniProt Q9H0H5).
T2 sequence (Q9H0H5 whole entry): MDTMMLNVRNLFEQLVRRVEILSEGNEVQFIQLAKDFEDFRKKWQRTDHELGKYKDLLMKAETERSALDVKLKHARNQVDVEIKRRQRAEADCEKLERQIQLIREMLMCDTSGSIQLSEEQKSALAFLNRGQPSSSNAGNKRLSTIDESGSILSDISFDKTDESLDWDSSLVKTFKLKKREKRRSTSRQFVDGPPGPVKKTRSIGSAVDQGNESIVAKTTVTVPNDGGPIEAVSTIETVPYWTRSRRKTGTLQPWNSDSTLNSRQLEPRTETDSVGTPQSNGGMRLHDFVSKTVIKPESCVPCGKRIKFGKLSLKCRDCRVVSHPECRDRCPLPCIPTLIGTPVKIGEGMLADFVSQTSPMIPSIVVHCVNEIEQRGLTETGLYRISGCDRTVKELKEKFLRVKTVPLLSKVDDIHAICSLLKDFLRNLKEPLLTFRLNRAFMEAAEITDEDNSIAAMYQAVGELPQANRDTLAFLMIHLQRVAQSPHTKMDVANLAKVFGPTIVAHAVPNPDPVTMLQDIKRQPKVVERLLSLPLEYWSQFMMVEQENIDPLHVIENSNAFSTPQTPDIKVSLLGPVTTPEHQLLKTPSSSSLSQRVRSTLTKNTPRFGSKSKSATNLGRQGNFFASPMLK
Description: blockers of MgcRacGAP-driven Rac1 GTP hydrolysis – biochemical, ADP Hunter fluorescence, primary and confirmatory, confirmation (AID 624330). Format: functional.

The target in assay [5] is Ras and Rab interactor 1/Tyrosine-protein kinase ABL1 (Homo sapiens, UniProt P00519+Q13671). In kind it is functional.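 Also: biochemical TR-FRET dose-response test measuring inhibition of binding between Rin1 and Abl proteins.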
The target of assay [6] is Dual specificity tyrosine-phosphorylation-regulated kinase 1A (Rattus norvegicus, UniProt Q63470). In kind it is biochemical, Homo sapiens.
The test system of assay [7] is Streptococcus sp. 'group A'. Put plainly: Streptococcus pyogenes SK(-)GAS viability under kanamycin – luminescence, BacTiterGlo, confirmation, counter-screen for streptokinase expression inhibitor project, dose response (AID 1900). In kind it is functional, organism-based.
The test system of assay [8] is Streptococcus. Put plainly: GAS UMAA2166 growth inhibition – luminescence, BacTiterGlo, counter-screen for streptokinase expression inhibitor project, dose response (AID 1915).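 Also: potency for reduction of bacterial viability or growth.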 Format: functional, organism-based.
Assay [9] deals with T3, Streptokinase A (Streptococcus pyogenes serotype M1, UniProt P10520).
T3 sequence (P10520 whole entry): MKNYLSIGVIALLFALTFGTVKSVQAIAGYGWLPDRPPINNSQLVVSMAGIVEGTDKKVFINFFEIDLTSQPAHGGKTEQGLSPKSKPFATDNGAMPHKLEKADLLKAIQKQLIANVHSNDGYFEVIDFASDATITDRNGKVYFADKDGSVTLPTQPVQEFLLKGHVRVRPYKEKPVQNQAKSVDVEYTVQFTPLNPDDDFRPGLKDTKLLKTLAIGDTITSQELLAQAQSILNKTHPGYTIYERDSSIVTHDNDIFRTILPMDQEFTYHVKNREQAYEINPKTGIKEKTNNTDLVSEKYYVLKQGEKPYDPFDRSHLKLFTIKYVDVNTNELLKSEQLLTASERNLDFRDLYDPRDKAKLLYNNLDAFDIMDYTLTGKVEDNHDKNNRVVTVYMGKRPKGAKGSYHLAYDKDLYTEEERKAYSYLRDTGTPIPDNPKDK
Description: viability-normalized secreted streptokinase activity reduction – plasminogen activation absorbance, OD405, dose response (AID 1914).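 Also: secreted streptokinase activity via plasminogen activation per viability signal from cell pellet.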 In kind it is functional, Streptococcus pyogenes M1 GAS.

Assay [10] relates to Streptococcus. Description: Luminescence Microorganism-Based Dose Response Follow up to Identify Compounds Cytotoxic to Streptococcus. [Related pubchem assays: 1677 (Project Summary), 1915, 1914, 1902 (Retest at Dose), 1900 (Counter Screen), 1662 (Primary HTS)]. In kind it is functional, organism-based.
Assay [11] in a line: Counterscreen for IDE inhibitors: Luminescence-based cell-based high throughput dose response assay to identify compounds that are cytotoxic to HEK cells. [Related pubchem assays: 434962 (Primary screen (IDE inhibitors in singlicate)), 449730 (Counterscreen (Cytotoxicity in triplicate)), 435028 (Confirmation (IDE inhibitors in triplicate)) …. Format: functional. To be noted: HEK293.

Assay [12] has as its target T4, Insulin-degrading enzyme (Homo sapiens, UniProt P14735).
T4 sequence (P14735 whole entry): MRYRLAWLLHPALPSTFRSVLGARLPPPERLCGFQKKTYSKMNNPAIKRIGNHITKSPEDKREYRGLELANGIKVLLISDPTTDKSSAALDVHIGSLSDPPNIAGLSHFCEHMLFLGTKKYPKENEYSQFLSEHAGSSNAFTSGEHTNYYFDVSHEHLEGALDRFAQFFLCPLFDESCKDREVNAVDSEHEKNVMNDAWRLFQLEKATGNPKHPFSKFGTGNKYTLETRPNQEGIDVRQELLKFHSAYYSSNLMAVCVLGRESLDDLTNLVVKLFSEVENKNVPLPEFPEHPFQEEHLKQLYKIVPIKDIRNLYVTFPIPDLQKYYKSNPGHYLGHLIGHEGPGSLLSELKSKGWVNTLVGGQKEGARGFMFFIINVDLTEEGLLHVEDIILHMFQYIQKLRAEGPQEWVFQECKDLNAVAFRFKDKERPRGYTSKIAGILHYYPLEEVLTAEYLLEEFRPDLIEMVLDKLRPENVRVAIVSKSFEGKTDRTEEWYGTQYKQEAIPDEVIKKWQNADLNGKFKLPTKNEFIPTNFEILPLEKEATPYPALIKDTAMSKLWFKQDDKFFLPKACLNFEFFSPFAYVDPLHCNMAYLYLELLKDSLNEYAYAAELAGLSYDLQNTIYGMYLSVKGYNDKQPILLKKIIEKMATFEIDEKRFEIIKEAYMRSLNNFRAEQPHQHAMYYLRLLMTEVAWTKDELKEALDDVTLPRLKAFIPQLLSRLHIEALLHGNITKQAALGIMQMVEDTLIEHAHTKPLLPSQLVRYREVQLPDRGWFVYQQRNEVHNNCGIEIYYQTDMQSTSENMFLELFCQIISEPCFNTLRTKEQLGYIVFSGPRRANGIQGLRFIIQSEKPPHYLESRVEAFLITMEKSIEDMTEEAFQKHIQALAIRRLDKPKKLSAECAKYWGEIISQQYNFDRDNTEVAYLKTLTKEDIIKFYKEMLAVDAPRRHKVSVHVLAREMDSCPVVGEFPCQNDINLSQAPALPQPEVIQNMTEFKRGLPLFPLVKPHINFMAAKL
Description: Dose Response: Fluorescence polarization-based cell-based high throughput dose response assay for inhibitors of insulin-degrading enzyme (IDE). [Related pubchem assays: 434962 (Primary screen (IDE inhibitors in singlicate)), 449730 (Counterscreen (Cytotoxicity in triplicate)), 435028 (Confirmation (IDE inhibitors in triplicate)), 434984 (Summary …. Format: functional. A general note: Fluorescence polarisation rises when a labelled molecule tumbles more slowly, as on binding a larger partner.

The structures appear in SMILES notation. The source made the active and inactive calls. Where only a bound is given, the exact number is not on record here.

Sequence of Cyclin-dependent kinase 5/CDK5 activator 1 (Q00535 whole entry): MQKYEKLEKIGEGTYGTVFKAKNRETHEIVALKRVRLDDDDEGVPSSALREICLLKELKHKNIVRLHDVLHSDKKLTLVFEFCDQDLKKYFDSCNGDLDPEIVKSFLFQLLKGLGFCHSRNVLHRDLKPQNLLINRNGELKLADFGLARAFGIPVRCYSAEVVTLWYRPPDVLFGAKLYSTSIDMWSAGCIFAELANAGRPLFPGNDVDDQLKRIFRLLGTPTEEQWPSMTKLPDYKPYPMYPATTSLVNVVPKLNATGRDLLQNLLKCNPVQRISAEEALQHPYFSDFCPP
Sequence of Cyclin-dependent kinase 5/CDK5 activator 1 (Q15078 whole entry, further chain): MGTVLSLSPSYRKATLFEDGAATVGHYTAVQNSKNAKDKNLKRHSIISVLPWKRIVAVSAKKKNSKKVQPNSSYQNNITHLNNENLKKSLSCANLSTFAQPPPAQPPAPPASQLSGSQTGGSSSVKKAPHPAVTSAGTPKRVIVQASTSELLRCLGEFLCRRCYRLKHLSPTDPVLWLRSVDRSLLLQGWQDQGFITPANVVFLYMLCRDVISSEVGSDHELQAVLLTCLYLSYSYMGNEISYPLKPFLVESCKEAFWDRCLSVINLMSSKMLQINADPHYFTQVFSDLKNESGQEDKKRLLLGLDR
Sequence of Ras and Rab interactor 1/Tyrosine-protein kinase ABL1 (P00519 whole entry): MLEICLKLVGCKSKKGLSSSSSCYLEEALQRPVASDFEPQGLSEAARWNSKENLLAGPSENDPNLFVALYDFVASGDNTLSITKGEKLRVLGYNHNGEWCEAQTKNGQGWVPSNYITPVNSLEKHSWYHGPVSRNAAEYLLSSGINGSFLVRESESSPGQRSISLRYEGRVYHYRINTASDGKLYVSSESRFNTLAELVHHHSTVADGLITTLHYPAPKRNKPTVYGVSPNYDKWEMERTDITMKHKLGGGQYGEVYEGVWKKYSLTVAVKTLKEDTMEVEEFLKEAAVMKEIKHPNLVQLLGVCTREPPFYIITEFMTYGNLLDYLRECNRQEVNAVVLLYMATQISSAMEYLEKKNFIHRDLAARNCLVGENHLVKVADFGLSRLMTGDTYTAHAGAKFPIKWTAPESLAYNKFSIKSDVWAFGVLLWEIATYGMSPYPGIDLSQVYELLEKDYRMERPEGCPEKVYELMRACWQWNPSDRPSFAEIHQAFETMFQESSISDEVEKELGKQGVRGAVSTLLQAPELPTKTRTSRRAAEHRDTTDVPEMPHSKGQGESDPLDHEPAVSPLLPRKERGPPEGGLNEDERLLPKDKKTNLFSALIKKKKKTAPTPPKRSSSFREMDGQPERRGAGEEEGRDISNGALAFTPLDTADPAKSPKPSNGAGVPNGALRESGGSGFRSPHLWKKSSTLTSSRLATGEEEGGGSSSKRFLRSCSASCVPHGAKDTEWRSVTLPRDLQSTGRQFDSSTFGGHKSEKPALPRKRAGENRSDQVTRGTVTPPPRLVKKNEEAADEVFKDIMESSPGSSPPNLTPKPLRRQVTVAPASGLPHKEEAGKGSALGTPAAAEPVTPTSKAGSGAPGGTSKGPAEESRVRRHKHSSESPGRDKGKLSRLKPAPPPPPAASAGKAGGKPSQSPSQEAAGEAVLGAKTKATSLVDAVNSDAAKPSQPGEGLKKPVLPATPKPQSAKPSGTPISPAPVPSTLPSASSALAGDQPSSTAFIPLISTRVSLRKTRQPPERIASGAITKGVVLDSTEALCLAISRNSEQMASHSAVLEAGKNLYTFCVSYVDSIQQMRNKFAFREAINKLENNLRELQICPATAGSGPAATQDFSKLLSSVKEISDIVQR
Sequence of Ras and Rab interactor 1/Tyrosine-protein kinase ABL1 (Q13671 whole entry): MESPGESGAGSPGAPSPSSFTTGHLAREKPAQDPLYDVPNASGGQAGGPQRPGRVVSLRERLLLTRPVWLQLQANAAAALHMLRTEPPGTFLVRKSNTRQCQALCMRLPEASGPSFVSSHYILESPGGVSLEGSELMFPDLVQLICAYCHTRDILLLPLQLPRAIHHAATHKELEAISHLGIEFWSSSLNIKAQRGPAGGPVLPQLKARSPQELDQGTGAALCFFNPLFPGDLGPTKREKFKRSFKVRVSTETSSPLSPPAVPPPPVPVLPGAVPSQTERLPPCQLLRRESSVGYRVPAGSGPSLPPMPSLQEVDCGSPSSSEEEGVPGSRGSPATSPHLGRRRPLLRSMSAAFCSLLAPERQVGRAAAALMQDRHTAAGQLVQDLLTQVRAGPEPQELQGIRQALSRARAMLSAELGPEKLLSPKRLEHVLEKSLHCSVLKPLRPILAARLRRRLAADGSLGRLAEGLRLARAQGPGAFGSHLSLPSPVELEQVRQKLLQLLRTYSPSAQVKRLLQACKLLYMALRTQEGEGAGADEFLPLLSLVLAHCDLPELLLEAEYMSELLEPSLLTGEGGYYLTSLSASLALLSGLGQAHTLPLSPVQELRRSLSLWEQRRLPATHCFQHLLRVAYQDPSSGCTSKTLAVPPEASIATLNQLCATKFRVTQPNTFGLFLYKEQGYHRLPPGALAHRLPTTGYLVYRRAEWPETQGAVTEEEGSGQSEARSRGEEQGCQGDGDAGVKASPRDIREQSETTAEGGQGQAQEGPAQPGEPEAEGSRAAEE

In the case of `O=c1c(O)c(-c2ccc(O)c(O)c2)oc2cc(O)ccc12`, the AC50 (commonly the concentration giving half of the maximal activity seen) in assay [1] was 1.69 µM (active); in assay [6] it was 248 nM (active). Moreover, the EC50 in [2] and in assay [3] was > 99 µM (inactive) in each case. For the same compound, the IC50 (as a rule, the concentration that gives 50% inhibition) was 45.7 µM (active) in assay [4] and > 73.5 µM (inactive) in [5].

With `FC(F)(F)c1nc(N2CCN(c3ccccc3)CC2)nc2c1CCCCC2`, the EC50 (in general, the concentration at which the effect is half-maximal) is 2.83 µM (active) in assay [7], > 150 µM (not active) in assay [8], 5.5 µM (active) in assay [9] and > 500 µM (not active) in assay [10].

For the compound `COc1cc(/C=C2\SC(=N)N(c3ccc(F)cc3)C2=O)ccc1O`, the IC50 in assay [11] was 39.5 µM (not active); in [12], 29.3 µM (not active).

The values are drawn from ChEMBL document CHEMBL1201862, “PubChem BioAssay data set” (2004).
